Values of other authors as cited in patent publication US20150290439A1, “METHODS FOR BILATERAL CENTRAL AUTONOMIC NEUROMODULATION” (priority 2014, published 2015).

Legend:
[1] = reason for discontinuation
[2] = target: calcitonin gene-related peptide receptor (Homo sapiens, UniProt O60894+Q16602)
[3] = not given; remark: listed apart in the source

Chain of calcitonin gene-related peptide receptor (Q16602 23-461): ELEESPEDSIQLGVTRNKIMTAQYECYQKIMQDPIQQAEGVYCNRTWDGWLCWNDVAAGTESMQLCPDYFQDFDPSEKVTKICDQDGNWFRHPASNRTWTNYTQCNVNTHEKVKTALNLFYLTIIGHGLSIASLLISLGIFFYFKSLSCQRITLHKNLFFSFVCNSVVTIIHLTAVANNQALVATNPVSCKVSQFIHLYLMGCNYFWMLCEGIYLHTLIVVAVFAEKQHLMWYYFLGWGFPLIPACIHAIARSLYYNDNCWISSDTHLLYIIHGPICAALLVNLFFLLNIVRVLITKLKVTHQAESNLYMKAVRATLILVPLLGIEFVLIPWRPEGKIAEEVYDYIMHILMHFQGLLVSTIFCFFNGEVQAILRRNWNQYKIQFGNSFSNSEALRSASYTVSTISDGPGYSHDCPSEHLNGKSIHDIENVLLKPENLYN
Chain of calcitonin gene-related peptide receptor (O60894 27-148): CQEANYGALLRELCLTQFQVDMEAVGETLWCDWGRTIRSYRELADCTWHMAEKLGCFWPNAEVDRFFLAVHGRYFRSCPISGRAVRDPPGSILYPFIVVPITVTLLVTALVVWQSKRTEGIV

For `Cc1cc(C[C@@H](OC(=O)N2CCC(N3CCc4ccccc4NC3=O)CC2)C(=O)N2CCC(N3CCOCC3)CC2)cc(C)c1O` [BI44370A], which “efficacy in Phase 2 clinical study” value is on record?
Its value is “efficacy demonstrated”.

With `O=C(N[C@@H]1CC[C@@H](c2cccc(F)c2F)CN(CC(F)(F)F)C1=O)N1CCC(n2c(=O)[nH]c3ncccc32)CC1` [Telcagepant] as the compound, how does the liver toxicity [1] read?
The liver toxicity was “concerns of liver toxicity after frequent use”.

With `O=C(CN1C(=O)C2(CCCC2)NC[C@H]1c1cc(F)cc(F)c1)Nc1ccc2c(c1)C[C@@]1(C2)C(=O)Nc2ncccc21` [MK-3207] as the compound, how does the liver toxicity [1] read?
The liver toxicity was “concerns of liver toxicity”.

And the “potency relative to telcagepant” value [2]?
Its value is “significantly more potent than telcagepant”.

With `N[C@@H]1c2cccnc2[C@H](OC(=O)N2CCC(n3c(=O)[nH]c4ncccc43)CC2)CC[C@H]1c1cccc(F)c1F` [BMS-927711] as the compound, how does the “efficacy of the highest tested dose” value ([3]; 600 mg) read?
The value was “no additional benefit over the doses of 75 mg and 150 mg”.

What about the “secondary endpoints versus placebo” value ([3]; Phase 2b, acute migraine) of the same compound?
Its value is “most (and sometimes all) doses were superior to placebo”.

What about the tolerability ([3]; acute dosing) of the same compound?
The tolerability was “placebo-like”.

And the “primary efficacy endpoint: proportion of pain-free subjects at 2 hours post dose” value ([3]; all doses, compared with sumatriptan, study not powered for direct comparisons)?
The value was “numerically inferior to sumatriptan”.

And the “efficacy as a function of dose” value ([3]; doses up to 300 mg)?
Its value is “increased up to the dose of 75 mg when a plateau effect seemed to have been reached for doses between 75 mg and 300 mg”.

What about the serious adverse events ([3]; in the trial) of the same compound?
The serious adverse events was “No serious adverse event was reported”.

And the photophobia and phonophobia ([3]; most effective doses)?
The photophobia and phonophobia was “significantly improved”.

And the “secondary endpoints versus sumatriptan” value ([3]; most effective doses)?
The value was “numerically superior to sumatriptan”.

And the “efficacy of a single dose” value ([3]; single dose)?
Its value is “has been demonstrated”.
